{"source": "patent US6759402B2", "about": "“Cyclic felbamate derived compounds” (University of Virginia Patent Foundation, priority 1999, dated 2004)", "key": {"[1]": {"tested_on": "MES-induced seizure spread", "test": "Maximal Electroshock Seizure (MES) test, mice i.p.", "type": "in vivo", "settings": "for MES: number of animals protected/total number of animals tested: mice i.p.", "excerpt": "(§1) The fluoro derivatives synthesized were submitted to the National Institute of Neurological Disorders and Stroke (NINDS) for evaluation in a standard panel of assays. Two convulsant tests (MES and scMET), and a toxicity screen (rotorod in mice, positional sense and gait in rats) were employed for evaluating the compounds activity as neuroprotecting agents. These testing procedures are described in detail in Molecular and Cellular Targets for Anti-epileptic Drugs, eds. G. Avanzini, G. Regesta, P. Tanganelli, M. Avoli, 1997, John Libbey & Company Ltd, pp 191-198. The felbamate derivatives were evaluated for anticonvulsant activity following intraperitoneal (i.p.) administration in mice and oral administration in rats.\n(§2) The MES test is a model for generalized tonic-clonic seizures and is used to identify compounds which prevent seizure spread. The behavioral and electrographic seizures generated in this model are consistent with the human disorder. In the MES test, an electrical stimulus of 0.2 s in duration (50 mA in mice and 150 mA in rat at 60 Hz) was delivered via corneal electrodes primed with an electrolyte solution containing an anesthetic agent. Mice were tested at 30 minutes and 4 hours following doses of 30, 100 and 300 mg/kg of test compound. Rats were tested at time intervals between 0.25 and 4 hours following a standard oral dose of 30 mg/kg. Abolition of the hindlimb tonic extensor component indicates the test compound's ability to inhibit MES-induced seizure spread.\n(§3) For the MES and scMET tests the data is presented in the form of the number of animals protected by the administered compound/total number of animals tested. […] Qualitative data was obtained for fluoro felbamate 12 (Tables 1 and 2A), fluoro monocarbamate felbamate 13 (Tables 1 and 2B), and flourodioxo 16 (Tables 1 and 2C) and for cyclic felbamate 21 (Tables 5 and 6B) and cyclic monocarbamate 22 (Tables 5 and 6A). More extensive quantitative data was also obtained for fluoro felbamate 12 in mice (Table 3) and rats (Table 4)."}, "[2]": {"tested_on": "pentylenetetrazol-induced clonic seizures", "test": "Subcutaneous Metrazol seizure test (scMET), mice i.p.", "type": "in vivo, Carworth Farms No. 1 mice", "excerpt": "as §1\nThis is a model that primarily identifies compounds that raise seizure threshold. With some minor exceptions, the pharmacological profile of the scMET seizure model is consistent with the human condition. The scMET test utilizes a dose of pentylenetetrazol (85 mg/kg in Carworth Farms No. 1 mice and 70 mg/kg in Sprague-Dawley rats) that induces clonic seizures lasting for a period of at least five seconds in 97% (CD97) of animals tested. At the anticipated time of testing the convulsant is administered subcutaneously. The test compound is administered intraperitoneally in mice and orally in rats. Animals are observed over a 30 minute period. Absence of clonic spasms in the observed time period indicates a compound's ability to abolish the effect of pentylenetetrazol on seizure threshold.\nas §3"}, "[3]": {"tested_on": "mice (rotorod)", "test": "Minimal neurotoxicity (TOX), rotorod test, mice i.p.", "type": "in vivo", "settings": "for TOX: number of animals exhibiting toxic effects/total number of animals tested: mice i.p.", "excerpt": "as §1, with “G. Avanzini, G. Regesta, P. Tanganelli, M. Avoli, 1997, John Libbey & Company Ltd, pp 191-198.” left out, “rats. […]” for “rats.”"}, "[4]": {"tested_on": "MES-induced seizure spread", "test": "Maximal Electroshock Seizure (MES) test, rats p.o.", "type": "in vivo", "settings": "for anti-seizure activity in rats: rat models; for MES: number of animals protected/total number of animals tested: rat p.o.; for MES: number of animals protected/total number of animals tested / MES protection: 30 mg/kg; for MES protection: rats, oral, several timepoints", "excerpt": "as §1, §2, §3"}, "[5]": {"tested_on": "rats (positional sense, gait and stance)", "test": "Minimal neurotoxicity (TOX), positional sense and gait and stance tests, rats p.o.", "type": "in vivo", "settings": "for TOX: number of animals exhibiting toxic effects/total number of animals tested: rat p.o., 30 mg/kg", "excerpt": "as §1, with “G. Avanzini, G. Regesta, P. Tanganelli, M. Avoli, 1997, John Libbey & Company Ltd, pp 191-198.” left out\nRats are examined for behavioral toxicity by the positional sense test and a gait and stance test. […] In the gait and stance test, neurotoxicity is indicated by a circular or zigzag gait, ataxia, abnormal spread of the legs, abnormal posture, tremor hyperactivity, lack of exploratory behavior, somnolence, stupor or catalepsy.\nFor the MES and scMET tests the data is presented in the form of the number of animals protected by the administered compound/total number of animals tested."}, "[6]": {"tested_on": "hippocampal kindled focal seizures", "test": "Hippocampal kindling model, kindled rats i.p.", "type": "in vivo, adult male Sprague-Dawley rats", "settings": "for Number Protected/Number Tested: Dose Responses table", "excerpt": "The hippocampal kindling model can be used to evaluate a compound's ability to affect both the expression and acquisition of focal seizures. The hippocampal kindling paradigm as described by Lothman and Williamson (Lothman, 1994) allows the temporal effects of a drug to be evaluated in a single animal. This procedure requires the surgical placement of bipolar electrodes in the ventral hippocampus of adult male Sprague-Dawley rats. Stage five behavioral seizures are produced by using a stimulus consisting of a 50 Hz, 10 s train of 1 ms biphasic 200 uA pulses delivered every 30 min for 6 hours (12 stimuli per day) on alternating days for a total of 60 stimulations (five stimulus days). Prior to evaluating a candidate's anticonvulsant activity, a drug free control period consisting of supramaximal stimulations are recorded to verify the stability of a stage five generalized seizure.\nA single dose of the candidate compound is then administered intraperitoneally (i.p.), 15 min following the last control stimulation. The anticonvulsant activity of the drug is assessed every 30 min for three to four hours starting 15 min after administering the test material. After each stimulation, individual Racine seizure scores and afterdischarge durations are recorded. Rats are used again in drug trials after four to five drug- and stimulus-free days."}, "[7]": {"test": "Stability of oxazinane-dione at relevant pH", "type": "physicochemical"}}, "note": "Marks after values point to notes of the source that are not given here."}
{"compound": "NC(=O)OCC1(c2ccccc2)COC(=O)N1", "note": "(stereo not drawn) [cyclic felbamate]", "values": [{"measurement": "MES: number of animals protected/total number of animals tested", "setting": "[1]; 30 mg/kg, 0.5 h", "value": "0/1"}, {"measurement": "MES: number of animals protected/total number of animals tested", "setting": "[1]; 30 mg/kg, 4.0 h", "value": "0/1"}, {"measurement": "MES: number of animals protected/total number of animals tested", "setting": "[1]; 100 mg/kg, 0.5 h", "value": "0/3"}, {"measurement": "MES: number of animals protected/total number of animals tested", "setting": "[1]; 100 mg/kg, 4.0 h", "value": "0/3"}, {"measurement": "MES: number of animals protected/total number of animals tested", "setting": "[1]; 300 mg/kg, 0.5 h", "value": "0/1"}, {"measurement": "MES: number of animals protected/total number of animals tested", "setting": "[1]; 300 mg/kg, 4.0 h", "value": "0/1"}, {"measurement": "ScMET: number of animals protected/total number of animals tested", "setting": "[2]; 30 mg/kg, 0.5 h", "value": "0/1"}, {"measurement": "ScMET: number of animals protected/total number of animals tested", "setting": "[2]; 30 mg/kg, 4.0 h", "value": "0/1"}, {"measurement": "ScMET: number of animals protected/total number of animals tested", "setting": "[2]; 100 mg/kg, 0.5 h", "value": "0/1"}, {"measurement": "ScMET: number of animals protected/total number of animals tested", "setting": "[2]; 100 mg/kg, 4.0 h", "value": "0/1"}, {"measurement": "ScMET: number of animals protected/total number of animals tested", "setting": "[2]; 300 mg/kg, 0.5 h", "value": "0/1"}, {"measurement": "ScMET: number of animals protected/total number of animals tested", "setting": "[2]; 300 mg/kg, 4.0 h", "value": "0/1"}, {"measurement": "TOX: number of animals exhibiting toxic effects/total number of animals tested", "setting": "[3]; 30 mg/kg, 0.5 h", "value": "0/4"}, {"measurement": "TOX: number of animals exhibiting toxic effects/total number of animals tested", "setting": "[3]; 30 mg/kg, 4.0 h", "value": "0/2"}, {"measurement": "TOX: number of animals exhibiting toxic effects/total number of animals tested", "setting": "[3]; 100 mg/kg, 0.5 h", "value": "0/8"}, {"measurement": "TOX: number of animals exhibiting toxic effects/total number of animals tested", "setting": "[3]; 100 mg/kg, 4.0 h", "value": "0/4"}, {"measurement": "TOX: number of animals exhibiting toxic effects/total number of animals tested", "setting": "[3]; 300 mg/kg, 0.5 h", "value": "0/4"}, {"measurement": "TOX: number of animals exhibiting toxic effects/total number of animals tested", "setting": "[3]; 300 mg/kg, 4.0 h", "value": "0/2"}, {"measurement": "anti-seizure activity in rats", "setting": "[4]", "value": "potent activity"}, {"measurement": "MES: number of animals protected/total number of animals tested", "setting": "[4]; 0.25 h", "value": "2/4"}, {"measurement": "MES: number of animals protected/total number of animals tested", "setting": "[4]; 0.5 h", "value": "2/4"}, {"measurement": "MES: number of animals protected/total number of animals tested", "setting": "[4]; 1.0 h", "value": "3/4"}, {"measurement": "MES: number of animals protected/total number of animals tested", "setting": "[4]; 2.0 h", "value": "0/4"}, {"measurement": "MES: number of animals protected/total number of animals tested", "setting": "[4]; 4.0 h", "value": "3/4"}, {"measurement": "TOX: number of animals exhibiting toxic effects/total number of animals tested", "setting": "[5]; 0.25 h", "value": "0/4"}, {"measurement": "TOX: number of animals exhibiting toxic effects/total number of animals tested", "setting": "[5]; 0.5 h", "value": "0/4"}, {"measurement": "TOX: number of animals exhibiting toxic effects/total number of animals tested", "setting": "[5]; 1.0 h", "value": "0/4"}, {"measurement": "TOX: number of animals exhibiting toxic effects/total number of animals tested", "setting": "[5]; 2.0 h", "value": "0/4"}, {"measurement": "TOX: number of animals exhibiting toxic effects/total number of animals tested", "setting": "[5]; 4.0 h", "value": "0/4"}]}
{"compound": "O=C1NC(=O)C(F)(c2ccccc2)CO1", "note": "(stereo not drawn) [fluoro dioxo, 5-Fluoro-5-phenyl-1,3-oxazinane-2,4-dione]", "values": [{"measurement": "anti-seizure activity in mice", "setting": "[1]; mice", "value": "inactive"}, {"measurement": "anti-seizure activity in rats", "setting": "[4]", "value": "strong anti-seizure activity"}]}
{"compound": "NC(=O)OCC(F)(COC(N)=O)c1ccccc1", "note": "[fluoro felbamate, 2-Fluoro-2-phenyl-1,3-propanediol dicarbamate]", "values": [{"measurement": "MES protection", "setting": "[1]; mice, 30 mg/kg, at both 30 minutes and 4 hours", "value": "MES protective effects"}, {"measurement": "times more active than felbamate", "setting": "[1]; test not specified", "value": "5-10 times"}, {"measurement": "dosage at which toxicity across time occurs", "setting": "[3]; mice", "value": "≥ 300", "unit": "mg/kg"}, {"measurement": "toxic effects", "setting": "[3]; mice, 30 mg/kg, 30 minute timepoint", "value": "some toxic effects"}, {"measurement": "safety ratio", "setting": "[3]; mice, quantitative results (Table 3)", "value": "at least five"}, {"measurement": "TOX ED50", "setting": "[3]; mouse, I.P.", "value": 115, "unit": "mg/kg"}, {"measurement": "MES protection", "setting": "[4]", "value": "full protection"}, {"measurement": "no toxicity at doses up to", "setting": "[5]; oral administration to rats", "value": "up to 500 mg/kg"}, {"measurement": "TOX ED50", "setting": "[5]; rat, p.o.", "value": ">500", "unit": "mg/kg"}, {"measurement": "Number Protected/Number Tested", "setting": "[6]; 25 mg/kg", "value": "0/7"}, {"measurement": "Number Protected/Number Tested", "setting": "[6]; 50 mg/kg", "value": "3/7"}, {"measurement": "Number Protected/Number Tested", "setting": "[6]; 100 mg/kg", "value": "7/8^a"}, {"measurement": "afterdischarge duration", "setting": "[6]; kindled rats, 100 mg/kg", "value": "corresponding decrease in afterdischarge duration"}, {"measurement": "seizure score", "setting": "[6]; kindled rats, 100 mg/kg", "value": "significant drop in seizure score"}]}
{"compound": "NC(=O)OCC(F)(CO)c1ccccc1", "note": "(stereo not drawn) [fluoro monocarbamate felbamate, 2-Fluoro-2-phenyl-1,3-propanediol monocarbamate]", "values": [{"measurement": "MES protection", "setting": "[1]; mice, 100 mg/kg", "value": "moderate MES protection"}, {"measurement": "MES protection", "setting": "[4]", "value": "protection is seen at several different timepoints"}]}
{"compound": "O=C1NC(=O)C(c2ccccc2)CO1", "note": "(stereo not drawn) [oxazinane-dione 9]", "values": [{"measurement": "stability at relevant pH", "setting": "[7]", "value": "unstable"}]}
